Assays:
[1] = test system: osteoclastogenesis (formation of multinucleated osteoclasts); assay: Osteoclastogenesis inhibition via co-culture system (bone marrow cells + osteoblasts, TRAP staining); type: cell-based, mouse; conditions: 7 days co-culture, vs vehicle control; for inhibition at 1 µM: Mus musculus, Osteoclast, 168 h; for Osteoclastogenesis inhibition (%): 1 μM
Experimental: Osteoclastogenesis inhibitory effects of the compounds of the present invention were evaluated via a co-culture system (Reference: Endocrinology 137(1996), 2187 to 2190, E. Jimi et al.). A specific experimental method is as follows.
1) Preparation of Bone Marrow Cells and Osteoblasts
Femur and tibia were aseptically dissected from 6 to 8-week-old male ddY mice to harvest bone marrow cells by a conventional method using a syringe. In brief, tissues were removed from the dissected bone, the bone ends were cut off with scissors, and the bone marrow was isolated by pushing a medium-containing syringe (23G) against the one end of the cut bone. The isolated bone marrow was subjected to repeated piston movement of a syringe such that single cells were obtained (Reference: Endocrinology 123(1988), 2600 to 2602, Takahashi et al.). After removal of red blood cells within the bone marrow, the bone marrow cells recovered by centrifugation were placed in an α-MEM supplemented with 10% fetal bovine serum (FBS), followed by counting of nucleated cells and then were immediately used for a co-culture system.
For the preparation of osteoblasts (Calvarial cells), the cranial bone were aseptically dissected from 1 to 2-day-old neonatal ICR mice and subjected to continuous reaction with a 0.2% collagenase solution to separate osteoblasts. The cell-suspended supernatant was centrifuged to recover osteoblasts which were grown to full confluence in an α-MEM supplemented with 10% FBS and then diluted to a desired cell density for use in the experiment.
2) Osteoclastogenesis Inhibition Experiment Via Co-Culture System
As the medium used for a co-culture system, a differentiation medium with the addition of differentiation factors 1α,25-dihydroxyvitamin D3 (10^−8M) and dexamethasone (10^−8M) to α-MEM supplemented with 10% FBS was used for the induction of osteoclastogenesis. First, the compounds of the present invention dissolved in dimethyl sulfoxide (DMSO) at a concentration of 1 mM were diluted to 2 μM using the above-mentioned differentiation medium. As a vehicle control group, 0.2% (v/v) DMSO was added to the medium. 100 μL/well of each medium was added to 96-well plates. In addition, the above prepared bone marrow cells and osteoblasts were plated onto 96-well plates at a density of 1×10^5 cells/50 μL/well and 3×10^3 cells/50 μL/well, respectively. The total volume/well was 200 μL and the final compound concentration was 1 μM. The control group was 0.1% (v/v) DMSO. The cells were cultured with exchange of the culture media with fresh media containing differentiation factors and test materials (materials containing the compounds of the present invention) at an interval of 2 to 3 days.
7 days after culturing of cells, the formation of multinucleated osteoclasts was confirmed by microscopic examination, the medium was removed from the wells and then the cells were fixed in a 10% phosphate-buffered formalin solution. The degree of formation of mature osteoclasts was measured taking advantage of the characteristics of osteoclasts showing a positive reaction to a tartrate-resistant acid phosphatase (TRAP) staining solution. The TRAP staining solution was prepared in a manner such that naphthol AS-MS phosphate as a substrate and a coloring agent (Fast Red Violet LB salt) were dissolved in N,N-dimethylformamide, and a 0.1N NaHCO3 buffer solution containing 50 mM of tartaric acid was added thereto. Among the TRAP-positive cells under a light microscope, multinucleated osteoclasts having 6 to 7 nuclei were regarded as mature osteoclasts.
The degree of inhibition of osteoclastogenesis was calculated according to the following equation 1. The results are summarized in Table 2 below (Experiments were carried out for 4 wells/experimental group (n=4), and the results are given in terms of mean±standard deviation) […]

Calvarial cell [2] = assay: Alkaline phosphatase (ALP) activity in osteoblasts (Calvarial cells); type: cell-based, mouse; conditions: 3 days; for activity at 1 µM: Mus musculus, 72 h, read-out: ALP activity (1 μM, % of Control) Calvarial cell
Experimental: (§1) Differentiation and activity of osteoblasts were indirectly evaluated by measuring an ALP activity having a close relationship with osteogenesis.
(§2) Osteoblasts (Calvarial cells) prepared in Experimental Example 1 and MC3T3-E1 cells (available from RIKEN Cell Bank, Japan) were collected in α-MEM supplemented with 10% FBS, followed by cell counting. The cells were dispensed into 24-well cultureware at a density of 2×10^4 cells/well. After culturing of the cells for 24 hours, the culture media were discarded and replaced with fresh media in which test compounds were diluted to a concentration of 1 μM (1 mL/well). In addition, the vehicle control group containing 0.1% DMSO was also treated. Under the conditions where the compounds were treated, the cells were cultured in a 5% CO2 […] at 37° for 3 days. When the experiment was terminated, the supernatant was removed and the cells were washed three times with cold phosphate buffer at 4°. 0.2% Triton X-100 was added to the washed cells which were then subjected to three cycles of freezing at −70° and thawing at room temperature for the complete lysis of cells. The cell extracts were pooled and centrifuged to collect the cell supernatant which was used for the measurement of ALP activity and proteins. The protein concentration was measured using a BCA assay kit (manufactured by Sigma-Aldrich). For the measurement of ALP activity, p-nitrophenylphosphate was added to the cell supernatant which was then incubated at 37° for 30 minutes, and the reaction was terminated with the addition of 50 μL of 0.2N sodium hydroxide. The standard curve was plotted at the absorbance of 405 nm using p-nitrophenol as a standard material and then the absorbance of test materials thus reacted was measured to determine the production amount of p-nitrophenol.
(§3) The ALP activity was calculated by dividing the amount of p-nitrophenol produced from each test material by the protein amount and the reaction time. Therefore, the unit of ALP activity was given in terms of p-nitrophenol/μg protein/min. The results are given in Table 3 where the ALP activity unit of each test material was given in terms of % change through the comparison between the individual test materials and the vehicle control group.

MC3T3-E1 cell = assay: Alkaline phosphatase (ALP) activity in MC3T3-E1 cells; type: cell-based; conditions: 3 days; for activity at 1 µM: Mus musculus, 72 h, read-out: ALP activity (1 μM, % of Control) MC3T3-E1 cell
Experimental: as §1, §2, §3

Calvarial cell [3] = assay: Cytotoxicity test (MTT) in osteoblasts (calvarial cells); conditions: 1 μM, 72 hours, vs vehicle control
Experimental: Drugs were diluted to a concentration of 2 μM in α-MEM culture media supplemented with 10% FBS. The vehicle control group was established to contain 0.2% DMSO. 100 μL/well of the diluted drugs were dispensed into 96-well plates to which osteoblasts (calvarial cells) prepared in Experimental Example 1 were then added at a density of 1.0×10^4 cells/100 μL/well. Here, the final compound concentration in the cell culture was 1 μM, and the vehicle control group contained 0.1% DMSO. The cells were cultured in a 5% CO2 inhibitorr at 37° for 72 hours. 25 μL of 3-(4,5-dimethyl-2-thiazolyl)-2,5-diphenyl-2H-tetrazolium bromide (MTT) dissolved in PBS (2 mg/mL) was added to each cell culture 4 hours before the end of culture. After completion of the reaction, the plates were centrifuged, the media were discarded, and 100 μL of formazan was added and dissolved in dimethyl sulfoxide (DMSO). Finally, the absorbance of the developed plates was measured at 540 nm. The cell viability was expressed as % concentration in comparison with the vehicle control group.

Compound	inhibition at 1 µM [1]	activity at 1 µM (Calvarial cell [2])	activity at 1 µM (MC3T3-E1 cell)	Cell viability (%) Calvarial cell (Calvarial cell [3])	Osteoclastogenesis inhibition (%) [1]	ALP activity (1 μM, % of Control) Calvarial cell (Calvarial cell [2])	ALP activity (1 μM, % of Control) MC3T3-E1 cell (MC3T3-E1 cell)
O=[N+]([O-])c1ccc(N2CCC(O)CC2)nc1Nc1ccc2[nH]ncc2c1 [Compound 9, 2-(1H-indazol-5-yl)amino-6-(4-hydroxypiperidino)-3-nitropyridine]	100%	166%	112%	105%			
CC(C)Nc1ccc([N+](=O)[O-])c(Nc2ccc3[nH]ncc3c2)n1 [Compound 6, 2-(1H-indazol-5-yl)amino-6-(isopropylamino)-3-nitropyridine]	100%	188%	207%	97%			
CCN(CCO)c1ccc([N+](=O)[O-])c(Nc2ccc3[nH]ncc3c2)n1 [Compound 11, 2-(1H-indazol-5-yl)amino-6-[(N-ethyl-2-hydroxyethyl)amino]-3-nitropyridine]				105%	98%	143 % of Control	140 % of Control
CNc1ccc([N+](=O)[O-])c(Nc2ccc3[nH]ncc3c2)n1 [Compound 5, 2-(1H-indazol-5-yl)amino-6-(methylamino)-3-nitropyridine]	89%	193%	206%	112%			
CN(C)CC(C)(C)CNc1ccc([N+](=O)[O-])c(Nc2ccc3[nH]ncc3c2)n1 [Compound 16, 2-(1H-indazol-5-yl)amino-6-[(3-dimethylamino-2,2-dimethyl)-propylamino]-3-nitropyridine]				104%	89%	123 % of Control	144 % of Control
CN(CCO)c1ccc([N+](=O)[O-])c(Nc2ccc3[nH]ncc3c2)n1 [Compound 7, 2-(1H-indazol-5-yl)amino-6-[(N-methyl-2-hydroxyethyl)amino]-3-nitropyridine]				103%	72%	221 % of Control	155 % of Control
CN(CC1OCCO1)c1ccc([N+](=O)[O-])c(Nc2ccc3[nH]ncc3c2)n1 [Compound 17, 2-(1H-indazol-5-yl)amino-6-[(N-[1,3]-dioxolan-2-ylmethyl)-methylamino]-3-nitropyridine]				89%	92%	139 % of Control	188 % of Control
